Test results as given in patent US4550186A, “Binuclear copper (II) carboxylates formed from amine-carboxyboranes” (Duke University, priority 1983, dated 1985).

Experiments:
[1] = biological target: T1, carbamyl phosphate synthetase (Mus musculus, UniProt B2RQC6); assay: In vitro carbamyl phosphate synthetase activity; assay type: biochemical; settings: 0.25 to 1.0 mM
T1 construct: CPSase II domain of CAD; ornithine transcarbamylase used as coupling enzyme
Method: CF1 male mice (~30 g) were implanted with 2×10^6 Ehrlich ascites tumor cells, intraperitoneally on Day 0. Compound I was suspended by homogenation in 0.05% polysorbate.80-water and administered intraperitoneally at 10 and 20 mg/kg for 9 days to determine its effectiveness for inhibition of tumor growth. Mice were sacrificed on Day 10, and the ascites fluid was collected from the peritoneal cavity. The volume and ascrit (packed cell volume) were determined for each animal and the percent inhibition of tumor growth was calculated. For the metabolic studies, mice were treated on Days 8 and 9 with 10 mg/kg of Compound I, intraperitoneally. […]
Carbamyl phosphate synthetase activity was determined using the reaction medium of Kalman et al [Am. […] Citrulline formed from ornithine was measured at 490 nm by the method of Archibald [J. Biol. Chem., 156, 121 (1944)]. […] The ^14 CO2 generated in 15 min was trapped in 1M KOH and counted. Thymidylate synthetase activity was determined using a post-mitochondrial supernatant (9000 g×10 min) and 5 μCi of 5-^3 H-deoxyuridine monophosphate (14 Ci/mmol) according to the method of Kampf et al [ J. Med. Chem., 19, 903 (1976)]. ^14 C-Formate incorporation into purines was determined by the method of Spassova et al [Biochem. Pharmacol., 25, 923 (1976)] using 0.5 μCi of ^14 C-formic acid (52.0 mCi/mmol). […] The Rf value for xanthine monophosphate was scraped and counted. […]

Fatty Acid Synthetase = biological target: T2, Fatty Acid Synthetase (Mus musculus, UniProt P19096); assay: In vitro liver enzyme study: fatty acid synthetase; assay type: biochemical; settings: in vitro CF1 liver
T2 construct: 10% homogenates of CF1 male mouse liver; from tissue; host or cells: CF1 male mouse liver, 10% homogenate
T2 sequence (P19096 whole entry): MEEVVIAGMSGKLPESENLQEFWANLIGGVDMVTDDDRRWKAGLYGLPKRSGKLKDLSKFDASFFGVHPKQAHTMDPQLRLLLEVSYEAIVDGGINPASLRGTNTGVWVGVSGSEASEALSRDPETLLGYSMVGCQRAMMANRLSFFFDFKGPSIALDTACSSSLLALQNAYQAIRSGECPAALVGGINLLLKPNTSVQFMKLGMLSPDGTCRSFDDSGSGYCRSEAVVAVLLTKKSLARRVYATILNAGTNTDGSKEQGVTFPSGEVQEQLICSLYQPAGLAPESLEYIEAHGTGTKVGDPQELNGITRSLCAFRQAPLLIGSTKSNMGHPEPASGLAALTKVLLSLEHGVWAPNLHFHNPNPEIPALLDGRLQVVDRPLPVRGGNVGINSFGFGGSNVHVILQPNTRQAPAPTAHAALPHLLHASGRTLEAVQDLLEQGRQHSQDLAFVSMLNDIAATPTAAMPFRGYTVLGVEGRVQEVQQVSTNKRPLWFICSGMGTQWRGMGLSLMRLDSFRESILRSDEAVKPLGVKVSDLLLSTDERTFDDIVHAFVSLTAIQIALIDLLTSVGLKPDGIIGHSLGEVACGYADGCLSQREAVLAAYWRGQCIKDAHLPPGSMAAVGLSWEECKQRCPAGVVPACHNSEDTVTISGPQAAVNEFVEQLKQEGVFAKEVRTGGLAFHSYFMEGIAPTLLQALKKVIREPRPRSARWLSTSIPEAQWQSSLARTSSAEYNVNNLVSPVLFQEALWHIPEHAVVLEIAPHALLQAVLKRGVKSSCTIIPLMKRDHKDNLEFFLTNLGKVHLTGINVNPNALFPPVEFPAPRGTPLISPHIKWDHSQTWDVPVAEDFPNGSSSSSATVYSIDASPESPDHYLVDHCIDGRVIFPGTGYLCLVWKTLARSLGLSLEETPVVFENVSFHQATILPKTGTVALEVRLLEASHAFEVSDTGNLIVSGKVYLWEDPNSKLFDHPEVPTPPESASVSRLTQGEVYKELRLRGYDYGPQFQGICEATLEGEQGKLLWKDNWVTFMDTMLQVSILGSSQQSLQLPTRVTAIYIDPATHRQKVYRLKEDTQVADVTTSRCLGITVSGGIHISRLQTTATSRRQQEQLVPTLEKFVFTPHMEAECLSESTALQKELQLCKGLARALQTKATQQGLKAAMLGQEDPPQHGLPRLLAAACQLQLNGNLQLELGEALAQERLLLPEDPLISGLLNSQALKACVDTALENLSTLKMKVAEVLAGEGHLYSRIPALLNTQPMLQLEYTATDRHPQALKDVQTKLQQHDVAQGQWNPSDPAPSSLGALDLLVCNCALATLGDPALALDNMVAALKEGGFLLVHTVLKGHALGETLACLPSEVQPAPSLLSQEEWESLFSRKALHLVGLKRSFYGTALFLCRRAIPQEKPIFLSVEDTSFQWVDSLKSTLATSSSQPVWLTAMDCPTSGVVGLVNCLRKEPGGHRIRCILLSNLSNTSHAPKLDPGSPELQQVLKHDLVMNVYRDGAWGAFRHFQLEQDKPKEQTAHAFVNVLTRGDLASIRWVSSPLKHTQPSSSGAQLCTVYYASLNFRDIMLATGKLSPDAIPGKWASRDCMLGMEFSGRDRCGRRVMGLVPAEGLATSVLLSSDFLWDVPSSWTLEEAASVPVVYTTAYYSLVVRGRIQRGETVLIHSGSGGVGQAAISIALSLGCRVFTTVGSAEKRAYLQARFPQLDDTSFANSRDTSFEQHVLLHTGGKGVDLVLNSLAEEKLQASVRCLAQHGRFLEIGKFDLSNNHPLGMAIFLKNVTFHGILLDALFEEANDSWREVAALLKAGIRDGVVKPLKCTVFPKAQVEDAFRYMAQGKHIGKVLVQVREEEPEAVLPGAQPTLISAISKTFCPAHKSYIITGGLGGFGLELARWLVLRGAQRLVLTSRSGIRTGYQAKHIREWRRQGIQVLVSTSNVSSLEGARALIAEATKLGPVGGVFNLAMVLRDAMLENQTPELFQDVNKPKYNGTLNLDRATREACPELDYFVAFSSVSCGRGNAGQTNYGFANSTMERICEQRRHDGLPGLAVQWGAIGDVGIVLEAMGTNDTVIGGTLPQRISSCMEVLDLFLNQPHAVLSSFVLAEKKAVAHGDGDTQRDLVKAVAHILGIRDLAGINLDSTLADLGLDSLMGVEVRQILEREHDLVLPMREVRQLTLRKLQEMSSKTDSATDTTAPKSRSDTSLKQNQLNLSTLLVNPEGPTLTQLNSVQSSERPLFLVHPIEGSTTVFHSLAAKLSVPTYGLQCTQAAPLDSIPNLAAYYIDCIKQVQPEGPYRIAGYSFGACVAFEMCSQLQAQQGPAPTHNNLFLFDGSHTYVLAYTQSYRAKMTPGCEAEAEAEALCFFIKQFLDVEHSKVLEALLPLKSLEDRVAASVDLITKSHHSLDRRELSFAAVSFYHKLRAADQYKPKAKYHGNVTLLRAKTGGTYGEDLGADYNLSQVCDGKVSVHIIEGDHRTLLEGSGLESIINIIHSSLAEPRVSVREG
Method: In vitro enzymatic studies were determined using 10% homogenates of CF1 male mouse liver with 50-200 μM of test drugs. In vivo enzymatic studies were determined using 10% homogenates of liver from CF1 male mice obtained after administering the agents for 16 days at a dose ranging from 2.5-20 mg/kg/day intraperitoneally. The liver homogenates for both in vitro and in vivo studies were prepared in 0.25M sucrose and 0.001M (ethylenedinitrilo)tetraacetic acid. Acetyl coenzyme A synthetase and adenosine triphosphate dependent citrate lyase activities were determined spectrophotometrically at 540 nm as the hydroxylamate of acetyl coenzyme A formed after 30 min at 37° C. Mitochondrial citrate exchange was determined by the procedure of Robinson et al [Eur. J. Biochem., 216, 63 (1970)] using ^14 C-sodium bicarbonate (41 mCi/mmol) incorporated into mitochondrial ^14 C-citrate after isolating rat mitochondria (9000 g×10 min) from the homogenates. The exchanges of the ^14 C-citrate were determined after incubating the mitochondrial fraction which was loaded with labeled citrate and test drugs for 10 min. Then the radioactivity was measured in the mitochondrial and supernantant fractions in scintillation fluid and expressed as a percentage. Cholesterol side chain oxidation was determined by the method of Kritchevsky and Tepper [Artherosclerosis, 18, 93 (1973)] using (26-^14 C) cholesterol (50 mCi/mmol) and mitochondria isolated from rat liver homogenates. […] Fatty acid synthetase activity was determined by the method of Brady et al [J. Biol. Chem., 235, 3093 (1960)] using [2-^14 C] malonyl-coenzyme A (37.5 mCi/mmol) which was incorporated into newly synthesized fatty acids that were extracted with ether and counted. Acyl transferase activity was determined with glycerol-3phosphate [L-2-^3 H(N)] […] HCl and counted. Phosphatidate phosphohydrolase activity was measured as the inorganic phosphate released after 30 min from phosphatidic acid by the method of Mavis et al [J. Lipid Res., 19, 467 (1978)]. […]

T1 sequence (B2RQC6 2-2225): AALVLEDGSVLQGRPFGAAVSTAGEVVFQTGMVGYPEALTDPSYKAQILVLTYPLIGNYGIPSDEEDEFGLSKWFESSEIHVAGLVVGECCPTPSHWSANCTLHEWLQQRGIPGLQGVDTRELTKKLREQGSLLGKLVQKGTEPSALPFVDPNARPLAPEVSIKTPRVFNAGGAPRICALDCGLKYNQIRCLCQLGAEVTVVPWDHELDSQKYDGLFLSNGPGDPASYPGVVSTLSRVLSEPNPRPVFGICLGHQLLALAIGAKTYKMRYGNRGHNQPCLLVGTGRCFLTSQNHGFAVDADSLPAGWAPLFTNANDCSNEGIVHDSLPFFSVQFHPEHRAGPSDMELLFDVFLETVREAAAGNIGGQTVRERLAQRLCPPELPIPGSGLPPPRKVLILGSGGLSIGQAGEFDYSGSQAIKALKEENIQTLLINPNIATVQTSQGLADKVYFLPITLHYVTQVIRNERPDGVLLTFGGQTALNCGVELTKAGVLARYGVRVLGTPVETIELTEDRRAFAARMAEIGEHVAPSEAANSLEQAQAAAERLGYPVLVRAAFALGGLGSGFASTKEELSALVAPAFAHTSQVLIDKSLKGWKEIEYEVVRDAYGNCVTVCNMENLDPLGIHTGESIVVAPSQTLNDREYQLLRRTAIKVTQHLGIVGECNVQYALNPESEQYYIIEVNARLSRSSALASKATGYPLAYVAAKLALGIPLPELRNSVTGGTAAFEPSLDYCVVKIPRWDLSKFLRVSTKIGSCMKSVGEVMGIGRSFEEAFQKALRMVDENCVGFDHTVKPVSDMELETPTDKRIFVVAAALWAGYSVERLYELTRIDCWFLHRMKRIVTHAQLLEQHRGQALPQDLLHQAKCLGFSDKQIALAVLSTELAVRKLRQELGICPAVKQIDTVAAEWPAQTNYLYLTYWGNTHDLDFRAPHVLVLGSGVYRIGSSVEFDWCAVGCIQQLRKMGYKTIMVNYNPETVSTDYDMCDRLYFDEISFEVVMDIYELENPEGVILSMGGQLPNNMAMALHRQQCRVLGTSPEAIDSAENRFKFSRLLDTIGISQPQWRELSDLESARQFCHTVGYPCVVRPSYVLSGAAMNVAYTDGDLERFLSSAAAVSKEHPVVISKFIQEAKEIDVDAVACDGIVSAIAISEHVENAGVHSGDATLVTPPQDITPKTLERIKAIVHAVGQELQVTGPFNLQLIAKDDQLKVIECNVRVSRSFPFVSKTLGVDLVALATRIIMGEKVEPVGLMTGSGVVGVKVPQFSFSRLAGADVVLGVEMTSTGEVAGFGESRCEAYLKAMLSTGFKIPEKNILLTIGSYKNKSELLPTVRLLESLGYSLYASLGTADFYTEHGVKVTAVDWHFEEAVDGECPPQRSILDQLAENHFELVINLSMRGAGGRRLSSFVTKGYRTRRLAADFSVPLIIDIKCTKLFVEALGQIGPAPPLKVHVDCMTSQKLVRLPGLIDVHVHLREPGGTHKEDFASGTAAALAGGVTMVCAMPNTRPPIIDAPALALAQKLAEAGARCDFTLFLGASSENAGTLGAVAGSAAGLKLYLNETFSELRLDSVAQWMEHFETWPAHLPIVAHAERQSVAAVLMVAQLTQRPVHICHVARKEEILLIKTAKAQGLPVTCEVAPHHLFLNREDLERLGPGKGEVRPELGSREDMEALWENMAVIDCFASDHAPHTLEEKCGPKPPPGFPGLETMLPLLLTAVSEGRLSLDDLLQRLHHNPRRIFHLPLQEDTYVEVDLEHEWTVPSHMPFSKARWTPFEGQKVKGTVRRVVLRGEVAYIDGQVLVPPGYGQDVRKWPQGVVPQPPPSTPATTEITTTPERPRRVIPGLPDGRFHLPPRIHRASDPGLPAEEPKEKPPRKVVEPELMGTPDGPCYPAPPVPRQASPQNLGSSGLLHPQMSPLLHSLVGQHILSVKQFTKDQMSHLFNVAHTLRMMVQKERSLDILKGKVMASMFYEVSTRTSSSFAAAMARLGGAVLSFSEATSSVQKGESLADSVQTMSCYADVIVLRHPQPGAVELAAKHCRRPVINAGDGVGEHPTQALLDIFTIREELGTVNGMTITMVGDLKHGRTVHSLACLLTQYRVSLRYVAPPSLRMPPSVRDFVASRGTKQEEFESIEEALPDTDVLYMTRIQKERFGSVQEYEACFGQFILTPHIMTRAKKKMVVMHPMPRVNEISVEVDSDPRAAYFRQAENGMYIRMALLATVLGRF

{Cu[(CH3)3 N.BH2 CO2 ]2.(CH3)3 N.BH2 COOH} [Compound I]
carbamyl phosphate synthetase inhibition [1]: not inhibited
Fatty Acid Synthetase (Fatty Acid Synthetase; 50 μM): 86 ± 7 Percent Control
Fatty Acid Synthetase (Fatty Acid Synthetase; 100 μM): 96 ± 8 Percent Control
Fatty Acid Synthetase (Fatty Acid Synthetase; 200 μM): 87 ± 7 Percent Control
